In PMC7083565, “In vitro metabolism, reaction phenotyping, enzyme kinetics, CYP inhibition and induction potential of ataluren” (Pharmacology Research & Perspectives, 2020):
Like-named read-outs stand apart in the source and are kept apart here.

Experiments:
Format in all cases: in vitro ADME
UGT (glucuronidation) = assay: Ataluren glucuronidation kinetics, human liver microsomes; conditions: human, pooled human liver microsomes, pH 7.5, HLM, read-out: CLint,u,UGT
Procedure: (§1) Ataluren at 0.5, 2.5, 12.5, 25, 50, 100, 200, and 400 µmol/L, was incubated (n = 3) at 37°C with recombinant human UGT1A9 and with pooled microsomes from human liver, kidney, and intestine (0.025 mg protein/mL, preactivated with alamethicin at 20 µg/mL) in Tris‐HCl buffer (0.1 mol/L, pH 7.5), in the presence of 1 mmol/L EDTA, 5 mmol/L MgCl2, with or without 0.5%, 1%, or 2% BSA. The incubation (100 µL final volume with 0.5% DMSO) was started by adding an equal volume of UDPGA (5 mmol/L) in Tris‐HCl buffer (0.1 mol/L, pH 7.5). After 30 minutes incubation, the incubation mixtures were combined with 0.3 mL of an internal standard solution in acetonitrile with 1% formic acid, followed by membrane plate filtration. The filtrates were used for LC‐MS/MS analysis to quantify the formation of ataluren‐O‐1β‐acyl glucuronide. Detailed LC‐MS/MS conditions are summarized in LC‐MS/MS Analysis section. Ataluren acyl glucuronide formation rate after 30 minutes incubation was calculated using the amount of metabolite formed (pmol) divided by the protein amount in the incubation sample (0.0025 mg) and the incubation time (30 minutes). Ataluren glucuronidation kinetic parameters were determined with and without adjusting BSA binding by nonlinear regression (GraphPad Prism, 5version 5.04, GraphPad Software, Inc.) using Michaelis‐Menten equation which was the best fit compared with other models. The intrinsic clearance was calculated as CLint = Vmax/Km. In order to compare unbound intrinsic clearance by glucuronidation (CLint,u,UGT) in different tissues, CLint,u,UGT was expressed per gram of tissue by correcting the values for the microsomal protein yield, resulting in scaled CLint,u,UGT. Microsomal protein yields of 40.0, 12.8, and 20.6 mg protein/g tissue were used for hepatic, renal, and intestinal data, respectively. ^26
(§2) The high‐throughput membrane ultrafiltration method ^27 was used to determine the fraction unbound in the incubation (n = 3). Incubation mixtures and procedures were essentially the same as the above except that UDPGA (5 mmol/L) was replaced with Tris‐HCl buffer (0.1 mol/L, pH 7.5). After 15 minutes incubation, aliquot was transferred to a Millipore Multiscreen Ultracel‐10 filter plate (10 kDa molecular mass cut off; EMD Millipore). The plate was centrifuged at 37°C and 3710 g. After 30 minutes centrifugation, aliquots of ultrafiltrates and incubation mixtures prior to ultrafiltration were quenched with an internal standard solution in acetonitrile, followed by membrane plate filtration. The filtrates were used for LC‐MS/MS analysis to quantify the concentration of ataluren. The same LC‐MS/MS conditions described above are summarized in LC‐MS/MS Analysis section. The free fraction = Cu/Cm, where Cu is the concentration of ataluren in the ultrafiltrate and Cm is the concentration of ataluren in the incubation system before centrifugation. Unbound Km (Km, u) was recalculated by applying Michaelis‐Menten equation using free ataluren concentrations after correcting BSA binding at each ataluren and BSA concentration level.
(§3) Quantification of ataluren‐O‐1β‐acyl glucuronide formation was conducted on an Accela pump and a PAL autosampler equipped with a TSQ Quantum Ultra mass spectrometer (Thermo Fisher Scientific). A Waters Acquity BEH column (C18, 1.7 µm, 50 × 2.1 mm; Waters Cooperation) was used and maintained at 50°C. The mobile phases were 0.1% formic acid in water (A) and acetonitrile (B). The flow rate was 0.6 mL/min and gradient program was as follows: linear gradient from 0% B to 95% B in 0.5 minutes and hold isocratic at 95% B for 1 minute; linear gradient from 95% B to 0% B in 0.1 minutes and hold isocratic at 0% B for 0.4 minutes. TSQ Quantum Ultra mass spectrometer was equipped with a heated electrospray ionization source operated in negative‐ion mode with a vaporizer temperature of 350°C, capillary temperature of 380°C, and spray voltage of 3 kV. […]

[1] = as above; conditions: for CLint,u,UGT (scaled) / K m / K m, u / V max: HLM; for CLint,u,UGT (scaled): 40.0 mg protein/g tissue; for K m / K m, u / V max: mean ± SE; for K m / K m, u / V max / fraction unbound at 15 min: n = 3; for fraction unbound at 15 min: human, pooled human liver microsomes incubation mixture, pH 7.5, HLM, mean ± SD, read-out: fu,inc
Procedure: as §1, §2, §3

[2] = Plasma protein binding (ultrafiltration), rat; conditions: male, Sprague Dawley, 50 to 50 000 ng/mL, mean ± SD, n = 3, read-out: percentage protein binding (converted)
Procedure: [^14C]‐Ataluren, at 50, 500, 5000, and 50 000 ng/mL or 0.175, 1.75, 17.5, and 175 µM, in male mouse, rat, dog, monkey, and human plasma, was incubated (n = 3) at 37°C for approximately 15 minutes, transferred into Centrifree® Micropartition Units (30 000 Da molecular weight cutoff, 1 mL capacity; Amicon Inc), and centrifuged at 37°C and 2000 g for approximately 10 minutes so that the amount of the sample filtered was approximately ≤ 20% of the total volume. After centrifugation, the entire ultrafiltrate was weighed and analyzed for radioactivity using liquid scintillation counting. The percent bound = (1‐Cu/Cm)×100, where Cu is the concentration of radioactivity in the ultrafiltrate and Cm is the concentration of radioactivity in the plasma before centrifugation.

`O=C(O)c1cccc(-c2noc(-c3ccccc3F)n2)c1` [ataluren, Ataluren] showed a microsomal CLint (UGT (glucuronidation); 0% BSA) of 40.3 µL/min/mg, a microsomal CLint (UGT (glucuronidation); 0.5% BSA) of 326 µL/min/mg and a microsomal CLint (UGT (glucuronidation); 1% BSA) of 421 µL/min/mg. The microsomal CLint (UGT (glucuronidation); 2% BSA) was 313 µL/min/mg, the “CLint,u,UGT (scaled)” value ([1]; 0% BSA) was 1.61 mL/min/g of tissue and the K m ([1]; 0% BSA) was 29.9 ± 4.49 µM. For the same compound, the “K m, u” value ([1]; 0% BSA) was 29.9 ± 4.49 µM, the V max ([1]; 0% BSA) was 1204 ± 49.0 pmol/min/mg and the “CLint,u,UGT (scaled)” value ([1]; 0.5% BSA) was 13.0 mL/min/g of tissue. The K m ([1]; 0.5% BSA) was 54.3 ± 9.42 µM, the “K m, u” value ([1]; 0.5% BSA) was 4.50 ± 0.748 µM and the V max ([1]; 0.5% BSA) was 1465 ± 68.2 pmol/min/mg. For the same compound, the “CLint,u,UGT (scaled)” value ([1]; 1% BSA) was 16.9 mL/min/g of tissue, the K m ([1]; 1% BSA) was 67.9 ± 9.19 µM and the “K m, u” value ([1]; 1% BSA) was 3.00 ± 0.415 µM. For the same compound, the V max ([1]; 1% BSA) was 1264 ± 53.5 pmol/min/mg, the “CLint,u,UGT (scaled)” value ([1]; 2% BSA) was 12.5 mL/min/g of tissue and the K m ([1]; 2% BSA) was 108 ± 10.7 µM. The “K m, u” value ([1]; 2% BSA) was 2.83 ± 0.315 µM, the V max ([1]; 2% BSA) was 886 ± 34.7 pmol/min/mg and the “maximal effect of BSA on CLint,u (increase)” value ([1]; human liver microsomes, with vs without BSA) was about 10 fold. It also gave a fraction unbound at 15 min ([1]; 0% BSA) of 1 ± 0.12, a fraction unbound at 15 min ([1]; 0.5% BSA) of 0.093 ± 0.006 and a fraction unbound at 15 min ([1]; 1% BSA) of 0.05 ± 0.007. For the same compound, the fraction unbound at 15 min ([1]; 2% BSA) was 0.03 ± 0.005 and the fraction unbound at 15 min [2] was 0.013.
